For orientation: IC50 means the concentration that gives 50% inhibition. The CC50 is the concentration giving 50% cytotoxicity.

Bounds are passed on as bounds.

From ChEMBL document CHEMBL6074651, “Hit-to-lead optimization of 4,5-dihydrofuran-3-sulfonyl scaffold against Leishmania amazonensis. Effect of an aliphatic moiety” (Eur J Med Chem, 2024) come the findings set out here.

Series [1] has as its system Leishmania amazonensis. The series can be described thus: Antileishmanial activity against leishmania amazonensis promastigotes MHOM/BR/77/LTB0016 assessed as parasite growth inhibition incubated for 72 hrs by resazurin dye based analysis. It counts as functional, organism-based. As to conditions: MHOM/BR/77/LTB0016, 72 h. For orientation: Resazurin is reduced to fluorescent resorufin, in cell work by metabolically active cells.

Series [2] in a line: Cytotoxicity against mouse Peritoneal macrophage cell assessed as inhibition of cell viability incubated for 72 hrs by resazurin dye based analysis. The series is classed as toxicity. As to conditions: peritoneal macrophages.
Series [3] in a line: Selectivity index, ratio of CC50 for cytotoxicity against murine peritoneal macrophages assessed as inhibition of cell viability to IC50 for antileishmanial activity against leishmania amazonensis intracellular amastigotes assessed as parasite growth inhibition. It counts as toxicity, cell-based, Macrophage. The note with it: mouse, read-out: Ratio CC50/IC50.
Series [4] relates to Leishmania amazonensis. Nature of the series: Antileishmanial activity against leishmania amazonensis intracellular amastigotes assessed as parasite growth inhibition measured after 72 hrs by hematological dye based microscopic analysis. It counts as functional, organism-based.

On to `CC1(Cc2ccccc2)CC(C(=O)NC2CCCC2)=C(c2ccc(/C(N)=N/O)cc2)O1` (stereo unspecified), for which the IC50 in series [1] came to 61.1 µM.

Consider `CC1(Cc2ccccc2)CC(C(=O)N2CCOCC2)=C(c2ccc(/C(N)=N/O)cc2)O1` (stereo unspecified), for which the IC50 in series [1] is over 128 µM.

Turning to `CC1(Cc2ccccc2)CC(S(C)(=O)=O)=C(c2ccc(/C(N)=N/O)cc2)O1` (stereo unspecified), the IC50 in series [1] was determined as 91.4 µM.

Regarding `CCOC(=O)C1=C(c2ccc(/C(N)=N/O)cc2)OC(C)(Cc2ccccc2)C1` (stereo unspecified), the IC50 in series [1] was 6.3 µM; in series [4] it was 1.3 µM. Besides, the CC50 at 72 h in series [2] came to 112 µM. Also, the selectivity ratio in series [3] stood at 87.8.

In the case of `CC1(Cc2ccccc2)CC(C(=O)NCCN2CCCC2)=C(c2ccc(/C(N)=N/O)cc2)O1` (stereo unspecified), the IC50 in series [1] turned out to be 102 µM.

As to `CCCCNC(=O)C1=C(c2ccc(/C(N)=N/O)cc2)OC(C)(Cc2ccccc2)C1` (stereo unspecified), the IC50 in series [1] is 92.6 µM.

In the case of `COC(=O)C1=C(c2ccc(/C(N)=N/O)cc2)OC(C)(Cc2ccccc2)C1` (stereo unspecified), the IC50 is 4.7 µM in series [1] and 2.3 µM in series [4]. In series [2], the CC50 at 72 h stood at 70.6 µM. Also, in series [3], the selectivity ratio turned out to be 30.7.

For `CCCCS(=O)(=O)C1=C(c2ccc(/C(N)=N/O)cc2)OC(C)(Cc2ccccc2)C1` (stereo unspecified), in series [1], the IC50 came to 63.5 µM.

As to `CCN(CC)C(=O)C1=C(c2ccc(/C(N)=N/O)cc2)OC(C)(Cc2ccccc2)C1` (stereo unspecified), the IC50 in series [1] turned out to be 60.4 µM.

Consider `CC1(Cc2ccccc2)CC(C(=O)NC2CCCCC2)=C(c2ccc(/C(N)=N/O)cc2)O1` (stereo unspecified), for which, in series [1], the IC50 came out at 43.6 µM.
